“Also recorded” adds a separate entry of the source. No end group written: not given here.
Experiments:
[1] = Enzymatic stability in murine plasma; type: in vitro ADME; settings: 37°C, HPLC separation, MS analysis, percentage from peak areas; for remaining at 2 h / remaining at 4 h / remaining at 8 h: mouse; for remaining at 2 h: 2-h incubation, read-out: Percentage intact peptide remaining (%) 2 h; for remaining at 4 h / Percentage intact peptide remaining (%) 4 h: 4-h incubation; for remaining at 4 h: read-out: Percentage intact peptide remaining (%) 4 h; for remaining at 8 h / Percentage intact peptide remaining (%) 8 h: 8-h incubation; for remaining at 8 h: read-out: Percentage intact peptide remaining (%) 8 h
Description: When incubated together with murine plasma, Ac-NT/XN-8-Gln remained 100% intact up to and including 4 h, and over 90% peptide intact over an extended 8-h incubation period (Table 1).

BRIN-BD11 cells = experiment: In vitro insulin secretion from BRIN-BD11 cells (radioimmunoassay); type: cell-based; settings: 20 min; for Effect on glucose-stimulated insulin secretion: 16.7 mM glucose, n=8 (Figure 1B); for Effect on GIP-induced insulin secretion: with 10^−7 M GIP, 5.6 mM glucose, n=8 (Figure 1C); for Effect on GLP-1 evoked insulin release: with 10^−7 M GLP-1, 5.6 mM glucose, n=8 (Figure 1D)
Description: The in vitro insulin secretory activity of test peptides was examined in BRIN-BD11 cells, cultured and maintained as previously described. For experimentation, BRIN-BD11 cells were seeded in 24-well plates at a cell density of 150000 cells/well, and allowed to attach overnight at 37°C. Following pre-incubation with Krebs–Ringer bicarbonate buffer (KRBB) (pH 7.4) supplemented with 0.5% (w/v) BSA and 1.1 mM glucose (40 min; 37°C), cells were then incubated with test peptides alone (10^−6–10^−12 M), or in combination with either GIP or GLP-1 (10^−7 M), at 5.6 or 16.7 mM glucose, as appropriate for 20 min. […] Aliquots of assay buffer (200 μl) were collected and stored at −20°C prior to assessment of insulin concentrations by an in-house radioimmunoassay. To confirm insulin secretory activity of Ac-NT/XN-8-Gln, pancreatic islets were isolated from lean C57BL/6 mice by collagenase digestion, as described previously and insulin secretion determined as outlined above (16.7 mM glucose), but over a 60-min test incubation period.
Figure 1 Acute effects of acetyl-neurotensin(8-13), xenin-8-Gln, Ac-NT/XN-8-Gln alone and in combination with GIP or GLP-1, on insulin release from BRIN-BD11 cells and isolated mouse islets BRIN-BD11 cells were incubated (20 min) with a range of concentrations (10^−12 to 10^−6 M) of acetyl-neurotensin(8-13), xenin-8-Gln or Ac-NT/XN-8-Gln alone (A,B) or in combination with GIP (C) or GLP-1 (D) in the presence of (A,C,D) 5.6 or (B) 16.7 mM glucose. (E) Murine islets were incubated (60 min) with Ac-NT/XN-8-Gln (10^−8 and 10^−6 M) in the presence 16.7 mM glucose. (A–E) Insulin release was measured using radioimmunoassay. Values represent means ± SEM (n=8 for (A–D) and n=5 for (E)). *P<0.05 and ***P<0.001 compared with respective glucose controls. ^∆P<0.05, ^∆∆P<0.01 and ^∆∆∆P<0.001 compared with respective 10^−7 M GIP or GLP-1 control.

BRIN-BD11 β-cells = experiment: β-cell proliferation, Ki-67 immunostaining; type: cell-based; settings: 18 h, 10^−8 and 10^−6 M, n=3–4, vs media control (Figure 2A)
Description: BRIN-BD11 β-cells were used to investigate effects of test peptides (10^−8 and 10^−6 M) on β-cell proliferation and protection against apoptosis. GLP-1 was employed as a positive control for all studies. Ki-67 immunostaining was used to assess effects on proliferation. Briefly, cells were seeded on to coverslips (40000 cells per coverslip) and cultured overnight (18 h; 37°C), in the presence of test peptides (10^−8 and 10^−6 M). Cells were then washed with PBS, and fixed using 4% paraformaldehyde. Following antigen retrieval with citrate buffer (90°C for 20 min), tissues were blocked using 1.1% BSA for 30 min. Cells were then incubated with Ki-67 primary antibody (1:500; Abcam, ab15580), followed by Alexa Fluor® 488 secondary antibody (1:400, Invitrogen, A-11008). Coverslips were washed with PBS, mounted on slides for viewing using a fluorescent microscope (Olympus System Microscope) and photographed by DP70 camera adapter system. Proliferation frequency was expressed as percentage of total cells analysed. For analysis of the ability of test peptides (10^−8 and 10^−6 M) to protect against apoptosis, cells were seeded as above, but apoptosis evoked through activation of caspase 3 and 7 activity by a luminogenic, tetrapeptide sequence DEVD Caspase-Glo® 3/7 substrate. Caspase induced cleavage of the substrate was then assessed by an ApoLive-Glow™ Multiplex assay kit, according to the protocol provided by the manufacturer (Promega, Wisconsin, U.S.A.).
(A) Proliferation was measured using Ki-67 immunocytochemistry. (B) Caspase-3/7 activation was detected by luminescence.

isolated mouse islets = experiment: Insulin secretion from isolated mouse islets; type: cell-based, C57BL/6 mice; settings: 16.7 mM glucose, 60 min, peptide 10^−8 and 10^−6 M, n=5 (Figure 1E)
Description: The in vitro insulin secretory activity of test peptides was examined in BRIN-BD11 cells, cultured and maintained as previously described. For experimentation, BRIN-BD11 cells were seeded in 24-well plates at a cell density of 150000 cells/well, and allowed to attach overnight at 37°C. Following pre-incubation with Krebs–Ringer bicarbonate buffer (KRBB) (pH 7.4) supplemented with 0.5% (w/v) BSA and 1.1 mM glucose (40 min; 37°C), cells were then incubated with test peptides alone (10^−6–10^−12 M), or in combination with either GIP or GLP-1 (10^−7 M), at 5.6 or 16.7 mM glucose, as appropriate for 20 min. […] To confirm insulin secretory activity of Ac-NT/XN-8-Gln, pancreatic islets were isolated from lean C57BL/6 mice by collagenase digestion, as described previously and insulin secretion determined as outlined above (16.7 mM glucose), but over a 60-min test incubation period.
Figure 1 Acute effects of acetyl-neurotensin(8-13), xenin-8-Gln, Ac-NT/XN-8-Gln alone and in combination with GIP or GLP-1, on insulin release from BRIN-BD11 cells and isolated mouse islets BRIN-BD11 cells were incubated (20 min) with a range of concentrations (10^−12 to 10^−6 M) of acetyl-neurotensin(8-13), xenin-8-Gln or Ac-NT/XN-8-Gln alone (A,B) or in combination with GIP (C) or GLP-1 (D) in the presence of (A,C,D) 5.6 or (B) 16.7 mM glucose. […] (A–E) Insulin release was measured using radioimmunoassay. […]

Molecule `CC[C@H](C)[C@H](NC(=O)[C@H](Cc1ccc(O)cc1)NC(=O)[C@@H]1CCCN1C(=O)[C@H](CCCNC(=N)N)NC(=O)[C@H](CCCNC(=N)N)NC(C)=O)C(=O)N[C@@H](CC(C)C)C(=O)O` [Acetyl-neurotensin(8-13)] has a remaining at 2 h [1] of 98.2%, a remaining at 4 h [1] of 94.4% and a remaining at 8 h [1] of 89.6%. For the same molecule, the “Effect on glucose-stimulated insulin secretion” value (BRIN-BD11 cells) was “inhibited”, the “Effect on GIP-induced insulin secretion” value (BRIN-BD11 cells) was “no effect” and the “Effect on GLP-1 evoked insulin release” value (BRIN-BD11 cells) was “inhibit”. The “β-cell proliferation (Ki-67)” value (BRIN-BD11 β-cells) was “augmented”.
With Ac-RRPYILHPQQPWIL [Ac-NT/XN-8-Gln] the “Percentage intact peptide remaining (%) 4 h” value [1] was 100%, the “Percentage intact peptide remaining (%) 8 h” value [1] was “over 90%” and the remaining at 2 h [1] was 100%. For the same molecule, the remaining at 8 h [1] was 91.7%, the “Effect on GIP-induced insulin secretion” value (BRIN-BD11 cells) was “augmented; also recorded: similar, but more prominent, bioactivity profile” and the “Effect on GLP-1 evoked insulin release” value (BRIN-BD11 cells) was “perturb”. For the same molecule, the “Insulin release from isolated mouse islets” value (isolated mouse islets) was “Prominent (P<0.01) insulinotropic actions” and the “β-cell proliferation (Ki-67)” value (BRIN-BD11 β-cells) was “augmented”.
In the case of HPQQPWIL [Xenin-8-Gln], the “Percentage intact peptide remaining (%) 8 h” value [1] is reported as 94.1%, the remaining at 2 h [1] is reported as 100% and the remaining at 4 h [1] is reported as 98.3%. The “Effect on glucose-stimulated insulin secretion” value (BRIN-BD11 cells) was “retained significant insulinotropic actions”, the “Effect on GIP-induced insulin secretion” value (BRIN-BD11 cells) was “augmented” and the “Effect on GLP-1 evoked insulin release” value (BRIN-BD11 cells) was “no impact”. The “β-cell proliferation (Ki-67)” value (BRIN-BD11 β-cells) was “devoid of benefits”.
In the case of glucagon-like peptide-1 [Native GLP-1], the “Percentage intact peptide remaining (%) 4 h” value [1] is reported as “fully degraded”.

Source: paper PMC8390788 (Bioscience Reports, 2021)
